Measured values from US20210395698A1, “METHODS AND COMPOSITIONS FOR CULTIVATING PLURIPOTENT CELL SUSPENSIONS” (Life Technologies Corporation, priority 2020, published 2021).
Entries after “also recorded” stand apart in the source; their conditions may differ.

Key:
[1] = tested on: Gibco Human Episomal iPSCs and WA09 ESCs; test: DOE of small molecules on PSC expansion in suspension culture (viable cell counts Day 5); format: cell-based; settings: for fold-expansion of PSCs: added to base PSC medium+1× RevitaCell, 24 well, 120 RPM, viable cell counts Day 5
Description: Design of Experiment (DOE) was conducted using Gibco Human Episomal induced pluripotent stem cells (iPSCs) and WA09 embryonic stem cells (ESCs) to determine the impact of the small molecules. These PSCs were seeded in base PSC medium+1× RevitaCell™ Supplement and grown in a 24 well non-tissue culture treated plate at 120 RPM on an orbital shaker platform and cell expansion was assessed via viable cell counts on Day 5. […] FIG. 1 depicts results from the assessment of various concentrations of an anti-clumping agent and individual small molecules CHIR99021, PD0325901, SP00125, BIRD796, and Go6983on the expansion of iPSCs and WA09 hESCs.

[2] = tested on: Gibco Human Episomal iPSCs; test: Optimal range of CHIR99021 in 100 mL PBS bioreactors: fold-change and viability; format: cell-based
Description: The optimal range of CHIR99021 for use in the PSC Medium formulation if included in the formulation for everyday feeds was assessed. Gibco Human Episomal iPSCs were expanded in 100 mL PBS bioreactors in duplicate and cell counts were performed at the end of each passage. […] The sugar source (glucose/galactose) and the concentration of CHIR99021 was varied. The feed schedule was also modified to include every day vs. every-other-day feed schedules. Fold-change upon expansion and viability were assessed for each condition. CHIR99021 concentrations as low as 0.6 μM supported optimal cell expansion on an every-day medium exchange feed schedule (FIG. 11A) and viability on an every-day and every-other-day medium exchange feed schedule (FIG. 11B). […] (FIGS. 11A-11B).

iPSCs = test: DOE on balance of CHIR99021, Go6983 and BSA: spheroid formation, fold-expansion, Oct4 pluripotency; format: cell-based, human; settings: for concentration giving maximal fold change (DOE prediction profiler): iPSCs in suspension, preference stated across WA09 ESCs and Gibco Human Episomal iPSCs
Description: DOE was conducted to assess the balance of CHIR99021, Go6983 (a broad-spectrum PKC inhibitor), and BSA in achieving optimum fold-expansion, while also providing support of maintenance of pluripotency. […] Variation in spheroid size resulting from the various culture conditions was assess by phase contrast imaging. […] At day 5 of culture spheroids were dissociated using StemPro Accutase and replated into 2D format for 24 hours. After 24 hours of growth, the cells were fixed, permeabilized and stained with DAPI and for Oct4 expression to determine the pluripotency of the dissociated cells. The number of cells expressing Oct4 was compared to the total number of cells expressing DAPI, enabling an estimation of the percentage of pluripotent stem cells obtained from the spheroids.
Various concentrations of Pinacidil, CHIR99021, Go6893, and BSA, with or without anti-clumping agent, was assessed for achieving fold-expansion of iPSCs in suspension culture. […] Overall, CHIR99021 facilitates spheroid formation and a balance of albumin and CHIR99021 maintains appropriate spheroid size.

[3] = tested on: Gibco Human Episomal iPSCs and WA09 ESCs; test: Expansion and spheroid morphology with small molecules added continuously vs Day 1 only; format: cell-based
Description: Cell morphology was assessed following exposure to formulations containing 3 μM CHIR99021 in continuous culture media vs exposure at day 1 only. iPSCs were grown in a 24 well non-tissue culture treated plate at 120 RPM on an orbital shaker platform and cell morphology was assessed on Day 5. In this experiment, the small molecules were added on Day 1 only or throughout the culture period. […] Cell expansion and morphology were assessed for PSC suspension cultures following incubation with the base PSC media formulation containing CHIR99021 alone or in combination with one or more of the other small molecules and/or anti-clumping agent. PSCs were grown in a 24 well non-tissue culture treated plate at 120 RPM on an orbital shaker platform and cell morphology was examined and cell expansion was assessed via viable cell counts on Day 5. In this experiment, the small molecules were either added on Day 1 only or throughout the culture period. In these figures, the x-axis indicates various formulations tested and the y-axis indicates the fold-change in viable cell counts from day 1 to day 5 of culture. Micrographs of the cell cultures at day 5 under certain conditions are also shown. […] It was surprising that the increase in fold-change could be accomplished through inclusion of CHIR99021 at the time of passage only (e.g., Day 1 only).

H9 (WA09) ESCs = test: ESC expansion in PSC basal medium with or without CHIR99021 vs mTeSR1; format: cell-based, human; settings: 10 μM Y-27632 at passaging; Day 5
Description: PSC expansion using the PSC media formulations provided herein was compared to expansion in commercially available media. H9 (WA09) ESCs were expanded in PSC basal medium in the absence of CHIR99021, PSC basal medium in the presence of CHIR99021, and in the mTeSR1 media formulation (Stem Cell Technologies). PSCs were passaged using StemPro™ Accutase™ cell dissociation reagent and grown in 6 well non-tissue culture treated plates seeded at 150,000 viable cells/mL in 2 mL of media and agitated at 70 RPM on an orbital shaker platform. […] Cell expansion was assessed via viable cell counts on Day 5. Cultures were fed with 50% medium replacement performed daily.

[4] = tested on: Gibco Human Episomal iPSCs; test: ROCKi comparison (Chroman I, Pinacidil, RevitaCell vs Y-27632) in PSC medium; format: cell-based; settings: 1× RevitaCell, 60 μM Pinacidil; for spheroid morphology (size): 50 nM Chroman I, 10 μM Y-27632; for spheroid expansion: Chroman I vs 10 μM Y-27632, CHIR99021 containing PSC medium, 5 days
Description: Gibco Human Episomal iPSCs were expanded in non-tissue culture treated 6 well plates on an orbital shaker set to 70 RPM. The cells were passaged from 2D cultures using StemPro Accutase and grown in PSC Medium. Cells were seeded on Day 0 at a concentration of 150,000 cells/mL in a 2 mL volume, with a ROCK inhibitor added to the culture. […] Spheroids were grown over 5 days, with 50% medium replacement performed daily.

[5] = tested on: Gibco Human Episomal iPSCs; test: ROCK inhibitor pairing with PSC base medium formulation; format: cell-based; settings: ROCKi used at time of passaging
Description: Following 5-day growth with 50% medium exchange daily and constant agitation on an orbital shake platform, fold-change upon expansion was assessed.

[6] = tested on: Gibco Human Episomal iPSCs; test: Spheroid growth and Oct4 pluripotency by seeding supplement (RevitaCell, Y-27632, Cellartis Supplement 3); format: cell-based
Description: PSC fold-expansion and pluripotency maintenance was compared for spheroid cultures seeded with a ROCK inhibitor or with the Cellartis Supplement 3 of the commercially available Cellartis Def-CS 3D medium system and grown in the complete PSC medium provided herein. Gibco Human Episomal iPSCs were expanded in 24-well non tissue culture treated plates at 120 RPM on an orbital shaker platform in the complete PSC medium to determine whether the type of ROCKi or Supplement selected for use affects the overall spheroid growth. […] Overall spheroid growth and expansion was assessed after the cells had grown for 5 days in the 24 well plate (FIG. 15A). The pluripotency of the spheroids was also assessed after the cells had grown for 5 days in the 24 well plate (FIG. 15B). To assess pluripotency, spheroids were dissociated using StemPro Accutase and replated into 2D format for 24 hours. After 24 hours of growth, the cells were fixed, permeabilized and stained with DAPI and for Oct4 expression to determine the pluripotency of the dissociated cells. The number of cells expressing Oct4 was compared to the total number of cells expressing DAPI, enabling an estimation of the percentage of pluripotent stem cells obtained from the spheroids.

Cc1cnc(-c2cnc(NCCNc3ccc(C#N)cn3)nc2-c2ccc(Cl)cc2Cl)[nH]1 [CHIR99021, 6-[[2-[[4-(2,4-dichlorophenyl)-5-(5-methyl-1H-imidazol-2-yl)-2-pyrimidinyl]amino]ethyl]amino]-3-pyridinecarbonitrile]
cell nucleation ([1]; CHIR99021 alone in base PSC medium formulation): assisted in cell nucleation
fold-expansion of PSCs [1]: significant improvement in fold-expansion
CHIR99021 concentration supporting optimal cell expansion ([2]; continuously in medium, every-day medium exchange): ≥ 0.6 µM
CHIR99021 concentration supporting viability ([2]; every-day and every-other-day medium exchange): ≥ 0.6 µM
CHIR99021 concentration supporting optimal fold-expansion ([2]; fed on every-other-day cadence): up to 1.5 μM
concentration giving maximal fold change (DOE prediction profiler) (iPSCs): intermediate concentration
spheroid formation (iPSCs; seeded with 10 μM Y-27632, 3 μM CHIR99021 present or absent): aids in spheroid formation
spheroid morphology Day 5 ([3]; 3 μM CHIR99021 included on a continual basis): aberrant differentiation was noted for some conditions
fold-expansion ([3]; CHIR99021 at various concentrations only at time of passaging): effective at increasing fold-expansion
spheroid morphology Day 5 ([3]; CHIR99021 included only at time of passaging (Day 1)): typical smooth edges and spheroid morphology; also recorded: maintain normal spheroidal morphology
fold-expansion compared to PSC basal medium without CHIR99021 (H9 (WA09) ESCs): enhances fold-expansion
fold-expansion compared to mTeSR1 (H9 (WA09) ESCs): significantly enhanced fold-expansion

COc1ccc2c(c1)C[C@H](C(=O)Nc1ccc(-c3cn[nH]c3)cc1OCCN(C)C)CO2 [Chroman I]
spheroid morphology (size) [4]: morphologically larger
spheroid expansion [4]: perform similarly

COc1ccc2c(c1)c(C1=C(c3c[nH]c4ccccc34)C(=O)NC1=O)cn2CCCN(C)C [Go6983]
concentration giving maximal fold change (DOE prediction profiler) (iPSCs): exclusion of Go6983 and anti-clump agent is preferred

O=C(NOC[C@H](O)CO)c1ccc(F)c(F)c1Nc1ccc(I)cc1F [PD0325901]
fold-expansion of PSCs [1]: detrimental to overall PSC expansion

CC(N/C(=N\C#N)Nc1ccncc1)C(C)(C)C (stereo not drawn) [Pinacidil]
spheroid morphology (size) [4]: morphologically smaller
spheroid expansion [4]: inferior to 10 μM Y-27632

O=C1c2ccccc2-c2n[nH]c3cccc1c23 [SP00125]
fold-expansion of PSCs [1]: detrimental to overall PSC expansion

O=C(NCc1ccccc1)c1csc(Nc2ccncn2)n1 [Thiazovivin]
spheroid size relative to Pinacidil [5]: Larger spheroids

C[C@@H](N)[C@H]1CC[C@H](C(=O)Nc2ccncc2)CC1 [Y-27632, (R)-(+)-trans-4-(1-aminoethyl)-N-(4-pyridyl)cyclohexanecarboxamide]
spheroid morphology (size) [4]: morphologically larger
spheroid expansion [4]: optimal performance
spheroid size and morphology on Day 5 ([6]; added on day 1 in complete PSC medium, 24 well, 120 RPM): most efficient with larger spheroids
maintenance of pluripotency (Oct4 vs DAPI) ([6]; after 5 days, replated 24 hours): maintain high levels of pluripotent stem cells
